The text below walks through data of patent US10428080B2, “TBK/IKK inhibitor compounds and uses thereof” (Merck Patent GmbH, priority 2015, dated 2019).

The target in one experiment is T1, TBK1 (Homo sapiens, UniProt Q9UHD2).
T1 sequence (Q9UHD2 1-729): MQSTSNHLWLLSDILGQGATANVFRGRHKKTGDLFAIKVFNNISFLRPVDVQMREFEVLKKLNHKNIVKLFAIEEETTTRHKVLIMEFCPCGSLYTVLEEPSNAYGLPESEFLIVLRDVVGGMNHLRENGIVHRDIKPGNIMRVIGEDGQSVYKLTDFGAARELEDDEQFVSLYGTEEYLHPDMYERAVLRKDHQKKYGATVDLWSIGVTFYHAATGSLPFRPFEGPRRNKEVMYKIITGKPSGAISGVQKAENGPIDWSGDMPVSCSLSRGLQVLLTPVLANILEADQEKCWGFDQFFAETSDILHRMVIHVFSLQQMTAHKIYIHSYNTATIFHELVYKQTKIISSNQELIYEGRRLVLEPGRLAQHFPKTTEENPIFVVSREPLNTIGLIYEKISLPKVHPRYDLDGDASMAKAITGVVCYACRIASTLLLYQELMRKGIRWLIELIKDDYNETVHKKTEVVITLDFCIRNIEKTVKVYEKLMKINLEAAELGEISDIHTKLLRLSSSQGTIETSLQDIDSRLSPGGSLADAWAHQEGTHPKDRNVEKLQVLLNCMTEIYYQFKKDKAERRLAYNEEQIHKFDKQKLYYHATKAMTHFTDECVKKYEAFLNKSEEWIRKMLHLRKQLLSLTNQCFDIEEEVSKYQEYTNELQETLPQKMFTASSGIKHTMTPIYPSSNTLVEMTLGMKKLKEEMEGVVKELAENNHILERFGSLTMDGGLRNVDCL
Put plainly: TBK Biochemical Assay. Conditions: read-out: TBK1 IC50. The method in brief: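 Caliper LabChip mobility-shift readout of substrate and product after 90 min of TBK1 reaction at 25° C and stop-buffer addition. Compounds tested in 1:4 serial dilution over 10 points from 30 uM final at 1% DMSO; staurosporine 10 uM final defines full inhibition.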

For the next experiment, the target named is T2, IKKε (Homo sapiens, UniProt Q14164).
T2 sequence (Q14164 1-716): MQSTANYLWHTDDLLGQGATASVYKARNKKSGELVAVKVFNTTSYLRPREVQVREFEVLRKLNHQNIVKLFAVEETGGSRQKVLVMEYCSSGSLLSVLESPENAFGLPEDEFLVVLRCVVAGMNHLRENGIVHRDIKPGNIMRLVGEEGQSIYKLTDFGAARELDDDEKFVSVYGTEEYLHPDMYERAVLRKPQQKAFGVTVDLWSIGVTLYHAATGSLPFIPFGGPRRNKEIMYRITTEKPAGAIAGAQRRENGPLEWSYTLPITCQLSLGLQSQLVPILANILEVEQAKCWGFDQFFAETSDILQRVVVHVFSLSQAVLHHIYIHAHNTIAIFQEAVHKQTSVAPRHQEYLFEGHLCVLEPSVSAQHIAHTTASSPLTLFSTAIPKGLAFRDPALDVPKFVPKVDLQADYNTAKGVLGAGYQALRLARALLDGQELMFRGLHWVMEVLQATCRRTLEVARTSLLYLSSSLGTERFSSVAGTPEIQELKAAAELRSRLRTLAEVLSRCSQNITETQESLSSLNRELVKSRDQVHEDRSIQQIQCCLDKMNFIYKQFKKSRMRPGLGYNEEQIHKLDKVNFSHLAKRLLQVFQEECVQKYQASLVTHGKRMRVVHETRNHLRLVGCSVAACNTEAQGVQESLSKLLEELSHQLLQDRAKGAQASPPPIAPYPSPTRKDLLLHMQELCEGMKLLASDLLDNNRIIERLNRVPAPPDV
In words: IKKe Biochemical Assay. Conditions: read-out: IKKε IC50. As for the experimental part:
Test compounds were transferred into Labcyte polypropylene 384 well plates (P055-25) and diluted to 3 mM using DMSO. 3 mM test compounds were dispensed using Labcyte ECHO dose response module into (Greiner 784075 plates (columns 3-12 and 13-22, 10 point 1:4) so that high concentration was 30 uM final. 100 uM of a reference compound (1 uM final high concentration). Backfilling was performed if necessary so that all wells contain 1% DMSO final: […]
add 75 nl DMSO/well into columns 1, 2 and 24 using Labcyte Echo. add 75 nl 1.0 mM staurosporine/well into column 23 using Labcyte Echo (10 uM final) add 4.5 ul enzyme/well using multidrop dispenser add 3 ul substrate/well using multidrop dispenser incubate at 25° C. for 90 min. add 7.5 ul 2× stop buffer read on labchip ez reader II using IKKε. job
Raw data files were opened in the Caliper LabChip Reviewer program (Version 3.0.265.0 SP2) and peak assignments were adjusted to reflect “substrate first” with the software's post-run analysis options. A spline-fit baseline was applied using the software's analysis algorithm.

Where a name gives a salt, the structure may show the parent alone.

`COc1cc(C(=O)N(C)C2CC2)ccc1-c1cc2nccc(-c3ccc(OC4CCOCC4)c(C#N)c3)c2o1` [Compound 60, 4-{7-[3-Cyano-4-(tetrahydro-pyran-4-yloxy)-phenyl]-furo[3,2-b]pyridin-2-yl}-N-cyclopropyl-3-methoxy-N-methyl-benzamide]: the IC50 at TBK1 and on IKKε was below 100 nM each time.

As to `COc1cc(C(=O)N(C)C2CCN(C)C2)ccc1-c1cc2nccc(-c3ccc(OC4CCOCC4)c(C#N)c3)c2o1` (stereo not drawn) [Compound 61, 4-{7-[3-Cyano-4-(tetrahydro-pyran-4-yloxy)-phenyl]-furo[3,2-b]pyridin-2-yl}-3-methoxy-N-methyl-N-(1-methyl-pyrrolidin-3-yl)-benzamide], the concentration for half-maximal inhibition (IC50) on TBK1 and at IKKε was below 100 nM throughout.

Turning to `COc1cc(C(=O)N2C3COCC2CC(O)C3)ccc1-c1cc2nccc(-c3ccc(OC4CCOCC4)c(C#N)c3)c2o1` (stereo not drawn) [Compound 66, 5-{2-[4-(7-Hydroxy-3-oxa-9-aza-bicyclo[3.3.1]nonane-9-carbonyl)-2-methoxy-phenyl]-furo[3,2-b]pyridin-7-yl}-2-(tetrahydro-pyran-4-yloxy)-benzonitrile], the concentration for half-maximal inhibition (IC50) at TBK1 and at IKKε was below 100 nM throughout.

As to `COc1cc(C(=O)N2C[C@H]3C[C@@H](O)C[C@H]3C2)ccc1-c1cc2nccc(-c3ccc(NC4CCOCC4)c(C#N)c3)c2o1` [Compound 81, 5-{2-[4-((3aR,5R,6aS)-5-Hydroxy-hexahydro-cyclopenta[c]pyrrole-2-carbonyl)-2-methoxy-phenyl]-furo[3,2-b]pyridin-7-yl}-2-(tetrahydro-pyran-4-ylamino)-benzonitrile], the IC50 on TBK1 and on IKKε was below 100 nM in each case.

`COc1cc(C(=O)NC2CCOCC2)ccc1-c1cc2nccc(-c3ccc(OC4CCOCC4)c(C#N)c3)c2o1` [Compound 83, 4-{7-[3-Cyano-4-(tetrahydro-pyran-4-yloxy)-phenyl]-furo[3,2-b]pyridin-2-yl}-3-methoxy-N-(tetrahydro-pyran-4-yl)-benzamide]: the IC50 at TBK1 and on IKKε was below 100 nM each time.

`COc1cc(C(=O)N2CC3CC2CO3)ccc1-c1cc2nccc(-c3ccc(NC4CCOCC4)c(C#N)c3)c2o1` (stereo not drawn) [Compound 85, 5-{2-[2-Methoxy-4-(2-oxa-5-aza-bicyclo[2.2.1]heptane-5-carbonyl)-phenyl]-furo[3,2-b]pyridin-7-yl}-2-(tetrahydro-pyran-4-ylamino)-benzonitrile]: the IC50 at TBK1 and at IKKε was below 100 nM in each case.

On to `COc1cc(C(=O)NC2(C)CCNC2)ccc1-c1cc2nccc(-c3ccc(OC4CCOCC4)c(C#N)c3)c2o1` (stereo not drawn) [Compound 86, 4-{7-[3-Cyano-4-(tetrahydro-pyran-4-yloxy)-phenyl]-furo[3,2-b]pyridin-2-yl}-3-methoxy-N-(3-methyl-pyrrolidin-3-yl)-benzamide hydrochloride], for which the half-maximal inhibitory concentration (IC50) on TBK1 and on IKKε was below 100 nM in each case.

In the case of `COc1cc(C(=O)N2CCCC2C(F)F)ccc1-c1cc2nccc(-c3ccc(OC4CCOCC4)c(C#N)c3)c2o1` (stereo not drawn) [Compound 89, 5-{2-[4-(2-Difluoromethyl-pyrrolidine-1-carbonyl)-2-methoxy-phenyl]-furo[3,2-b]pyridin-7-yl}-2-(tetrahydro-pyran-4-yloxy)-benzonitrile], the 50% inhibitory concentration (IC50) at TBK1 and at IKKε was below 100 nM each time.

Consider `COc1cc(C(=O)N2C3CCC2COC3)ccc1-c1cc2nccc(-c3ccc(NC4CCOCC4)c(C#N)c3)c2o1` [Compound 94, 5-{2-[2-Methoxy-4-(3-oxa-8-aza-bicyclo[3.2.1]octane-8-carbonyl)-phenyl]-furo[3,2-b]pyridin-7-yl}-2-(tetrahydro-pyran-4-ylamino)-benzonitrile], for which the IC50 on TBK1 and at IKKε was below 100 nM throughout.

As for `COc1cc(C(=O)N2CC[C@@H](O)C2)ccc1-c1cc2nccc(-c3ccc(NC4CCOCC4)c(C#N)c3)c2o1` [Compound 95, 5-{2-[4-((R)-3-Hydroxy-pyrrolidine-1-carbonyl)-2-methoxy-phenyl]-furo[3,2-b]pyridin-7-yl}-2-(tetrahydro-pyran-4-ylamino)-benzonitrile], the IC50 at TBK1 and at IKKε was below 100 nM throughout.

For the compound `COc1cc(C(=O)N2CC3CCC(O)C3C2)ccc1-c1cc2nccc(-c3ccc(NC4CCOCC4)c(C#N)c3)c2o1` (stereo not drawn) [Compound 96], the IC50 at TBK1 and on IKKε was below 100 nM each time.

Consider `COc1cc(C(=O)N(C)C)ccc1-c1cc2nccc(-c3ccc(OC4CCN(C)CC4(F)F)c(C#N)c3)c2o1` (stereo not drawn) [Compound 97, 4-{7-[3-Cyano-4-(3,3-difluoro-1-methyl-piperidin-4-yloxy)-phenyl]-furo[3,2-b]pyridin-2-yl}-3-methoxy-N,N-dimethyl-benzamide], for which the IC50 on TBK1 and on IKKε was below 100 nM each time.

Turning to `COc1cc(C(=O)N2CC3CCCC3C2)ccc1-c1cc2nccc(-c3ccc(OC4CCOCC4)c(C#N)c3)c2o1` (stereo not drawn) [Compound 99, 5-{2-[4-(Hexahydro-cyclopenta[c]pyrrole-2-carbonyl)-2-methoxy-phenyl]-furo[3,2-b]pyridin-7-yl}-2-(tetrahydro-pyran-4-yloxy)-benzonitrile], the IC50 on TBK1 and at IKKε was below 100 nM throughout.

As to `CNC(=O)c1ccc(-c2cc3nccc(-c4ccc(OC5CCOCC5)c(C#N)c4)c3o2)c(OC)c1` [Compound 100, 4-{7-[3-Cyano-4-(tetrahydro-pyran-4-yloxy)-phenyl]-furo[3,2-b]pyridin-2-yl}-3-methoxy-N-methyl-benzamide], the IC50 on TBK1 and at IKKε was below 100 nM each time.

With `COc1cc(C(=O)NC2CCOCC2F)ccc1-c1cc2nccc(-c3ccc(OC4CCOCC4)c(C#N)c3)c2o1` (stereo not drawn) [Compound 102, 4-{7-[3-Cyano-4-(tetrahydro-pyran-4-yloxy)-phenyl]-furo[3,2-b]pyridin-2-yl}-N-(3-fluoro-tetrahydro-pyran-4-yl)-3-methoxy-benzamide], the half-maximal inhibitory concentration (IC50) at TBK1 and on IKKε was below 100 nM each time.

As to `COc1cc(C(=O)N2CC[C@H](O)C2)ccc1-c1cc2nccc(-c3ccc(NC4CCOCC4)c(C#N)c3)c2o1` [Compound 103, 5-{2-[4-((S)-3-Hydroxy-pyrrolidine-1-carbonyl)-2-methoxy-phenyl]-furo[3,2-b]pyridin-7-yl}-2-(tetrahydro-pyran-4-ylamino)-benzonitrile], the half-inhibitory concentration (IC50) on TBK1 and on IKKε was below 100 nM in each case.

In the case of `N#Cc1cc(-c2ccnc3cc(-c4ccc(C(=O)O)cc4)oc23)ccc1N1CC[C@H](F)C1` [Compound 107, 4-{7-[3-Cyano-4-((S)-3-fluoro-pyrrolidin-1-yl)-phenyl]-furo[3,2-b]pyridin-2-yl}-benzoic acid], the IC50 at TBK1 and on IKKε was below 100 nM in each case.

Consider `COc1cc(C(=O)N(C)C)ccc1-c1cc2nccc(-c3ccc(OC4(C(F)(F)F)CCNC4)c(C#N)c3)c2o1` (stereo not drawn) [Compound 113, 4-{7-[3-Cyano-4-(3-trifluoromethyl-pyrrolidin-3-yloxy)-phenyl]-furo[3,2-b]pyridin-2-yl}-3-methoxy-N,N-dimethyl-benzamide], for which the IC50 at TBK1 and at IKKε was below 100 nM throughout.

As a reminder, the IC50 is the point on the concentration scale where inhibition reaches its midpoint.
